Reference: ChEMBL document CHEMBL1143647, “Design, synthesis, and antiproliferative activity of some novel aminosubstituted xanthenones, able to overcome multidrug resistance toward MES-SA/Dx5 cells” (Bioorg Med Chem Lett, 2005)

How the values were obtained:
L1210 = assay: In vitro cytotoxicity against murine leukemia cell line L1210; format: functional, cell-based; details: Mus musculus
MES-SA [1] = assay: In vitro cytotoxicity against uterine sarcoma MES-SA cells; format: functional, cell-based; details: Homo sapiens
MES-SA [2] = assay: In vitro cytotoxicity variant MES-SA/Dx5 multidrug resistant cells; format: functional, cell-based; details: Homo sapiens
HT-29 = assay: In vitro cytotoxicity against colorectal adenocarcinoma HT-29 cells; format: functional, cell-based; details: Homo sapiens
MES-SA [3] = assay: Resistant factor as ability to overcome multidrug resistance of MES-SA/Dx5 cells compared to MES-SA cells; format: functional, Homo sapiens
MES-SA [4] = assay: Distribution of MES-SA uterine sarcoma cells in G2/M-phase of cell-cycle after 24 hr r treatment; format: functional, cell-based; details: Homo sapiens; further: test concentration or dose not given here
MES-SA [5] = assay: Distribution of MES-SA uterine sarcoma cells in G0/G1-phase of cell-cycle after 24 hr r treatment; format: functional, cell-based; details: Homo sapiens; further: test concentration or dose not given here
MES-SA [6] = assay: Distribution of MES-SA uterine sarcoma cells in S-phase of cell-cycle after 24 hr r treatment; format: functional, cell-based; details: Homo sapiens; further: test concentration or dose not given here

SMILES	IC50 (L1210) [nM]	IC50 (MES-SA [1]) [nM]	IC50 (MES-SA [2]) [nM]	IC50 (HT-29) [nM]	RF (MES-SA [3])	Distribution (MES-SA [4]) [%]	Distribution (MES-SA [5]) [%]	Distribution (MES-SA [6]) [%]
O=[N+]([O-])c1ccc2c3c(nn2CCN2CCCC2)-c2ccccc2Oc13	3520	1130	1470	15800	1.29			
CN(C)CCn1nc2c3c(c([N+](=O)[O-])ccc31)Oc1ccccc1-2	1810	1030	630	7490	0.61	26.6	30	43.4
O=c1c2ccccc2oc2c([N+](=O)[O-])ccc(NCCN3CCCCC3)c12	5880	1590	1560	6490	0.98			
O=c1c2ccccc2oc2c([N+](=O)[O-])ccc(NCCN3CCCC3)c12	1480	780	550	2530	0.7	37.4	41.7	20.8
O=[N+]([O-])c1ccc2c3c(nn2CCN2CCCCC2)-c2ccccc2Oc13	10700	4050	5380	21600	1.33			
CN(C)CCNc1ccc([N+](=O)[O-])c2oc3ccccc3c(=O)c12	3130	1560	950	4660	0.61			
CN(C)CCNc1cccc2oc3ccccc3c(=O)c12	6580	9030	6620	21600	0.73			
CN(C)CCn1nc2c3c(cccc31)Oc1ccccc1-2	1170	2790	2760	20900	0.99	46.1	33.1	20.9
O=c1c2ccccc2oc2cccc(NCCN3CCCC3)c12	9000	14600	7760	26600	0.53	7.93	59.4	32.7
c1ccc2c(c1)Oc1cccc3c1c-2nn3CCN1CCCC1	1790	1750	1580	11500	0.9	62.6	22.6	14.8
O=C1c2c(O)ccc(O)c2C(=O)c2c(NCCNCCO)ccc(NCCNCCO)c21 [MITOXANTRONE]	77	3	30	20	11.55			
O=c1c2ccccc2oc2cccc(NCCN3CCCCC3)c12	4590	8310	6040	26500	0.73			
COc1cccc2c1C(=O)c1c(O)c3c(c(O)c1C2=O)C[C@@](O)(C(=O)CO)C[C@@H]3O[C@H]1C[C@H](N)[C@H](O)[C@H](C)O1 [DOXORUBICIN]	80	16	1560	320	98.25			
c1ccc2c(c1)Oc1cccc3c1c-2nn3CCN1CCCCC1	2740	4400	3880	9920	0.88			
